Reference: publication PMC5693757 (Journal of molecular biology, 2017)

How the values were obtained:
Type in all cases: binding
ARL2 [1] = target: T1, ARL2 (Homo sapiens, UniProt P36404); test: real-time mant fluorescence association/dissociation kinetics
ARL2 [2] = target: T1, ARL2; test: HDX-MS
ARL2 [3] = target: T1, ARL2; test: radioligand nitrocellulose filter trapping

T1 sequence (P36404 2-184): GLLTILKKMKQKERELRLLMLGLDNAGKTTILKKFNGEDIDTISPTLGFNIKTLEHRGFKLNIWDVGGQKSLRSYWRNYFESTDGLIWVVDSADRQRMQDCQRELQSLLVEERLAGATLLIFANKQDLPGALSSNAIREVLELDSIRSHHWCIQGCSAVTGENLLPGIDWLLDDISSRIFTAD

Compound mant-Gpp(NH)p has a Kd (ARL2 [1]) of 590 nM.

In the case of `Nc1nc2c(ncn2[C@@H]2O[C@H](COP(=O)(O)OP(=O)(O)O)[C@@H](O)[C@H]2O)c(=O)[nH]1` [GDP], the HDX-MS (ARL2 [2]) is reported as “addition of GDP to ARL2 (apo→GDP) resulted in large protection to deuterium uptake at the conserved nucleotide-binding motifs G1 and G4”.

With `Nc1nc2c(ncn2[C@@H]2O[C@H](COP(=O)(O)OP(=O)(O)OP(O)(O)=S)[C@@H](O)[C@H]2O)c(=O)[nH]1` [GTPγS] the “radioligand nitrocellulose filter trapping; HDX-MS” value (ARL2 [3]) was “Human ARL2 monomer, exogenously expressed and purified from E. coli or HEK cells, bound GTPγS to similar stoichiometries”.
